From PubChem BioAssay AID330 (DTP/NCI, 2004) come the findings set out here.

Values joined by “and” are separate entries in the source; they are usually repeats but may differ in a detail not shown here. Identical values can stand only once. Inconclusive results and toxic doses are left out.

The test system of this assay is P388 leukemia ip, CD2F1 mice, survival T/C. Nature of the assay: NCI In Vivo Anticancer Drug Screen. Data for tumor model P388 Leukemia (intraperitoneal) in CD2F1 (CDF1) mice. Particulars: endpoint: median survival time, higher = longer survival. In short, it runs like this: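 Mice carrying the transplanted tumor received test compound or vehicle. Survival was recorded in each group, and the value is the treated-group measurement divided by that of the vehicle-treated control group.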

Where [1] appears, read: dose: 12.5 mg/kg/injection, schedule: Q01DX009 (ip), vehicle: saline.
Where [2] appears, read: dose: 60.0 mg/kg/injection, schedule: Q01DX005 (ip), vehicle: Klucel (hydroxypropylcellulose) (HPC).
The mark [3] stands for this setting: dose: 120.0 mg/kg/injection, schedule: Q01DX005 (ip), vehicle: Klucel (hydroxypropylcellulose) (HPC).
Setting [4] is: dose: 50.0 mg/kg/injection, schedule: Q01DX005 (ip), vehicle: Klucel (hydroxypropylcellulose) (HPC).
Where [5] appears, read: dose: 100.0 mg/kg/injection, schedule: Q01DX005 (ip), vehicle: Klucel (hydroxypropylcellulose) (HPC).
Where [6] appears, read: dose: 25.0 mg/kg/injection, schedule: Q01DX009 (ip), vehicle: saline.
Setting [7] is: dose: 50.0 mg/kg/injection, schedule: Q01DX009 (ip), vehicle: saline.
The mark [8] stands for this setting: dose: 100.0 mg/kg/injection, schedule: Q01DX009 (ip), vehicle: saline.
Setting [9] is: dose: 200.0 mg/kg/injection, schedule: Q01DX005 (ip), vehicle: Klucel (hydroxypropylcellulose) (HPC).
The mark [10] stands for this setting: dose: 6.25 mg/kg/injection, schedule: Q04DX002 (ip), vehicle: saline with Tween-80.
Setting [11] is: dose: 12.5 mg/kg/injection, schedule: Q04DX002 (ip), vehicle: saline with Tween-80.

Regarding `COC(=O)/C=C/NC(=O)c1ccccc1C(=O)OC`, the T/C is, setting by setting: (dose: 25.0 mg/kg/injection, schedule: Q01DX009 (ip), vehicle: suspension in saline) 98 % of control; (dose: 50.0 mg/kg/injection, schedule: Q01DX009 (ip), vehicle: suspension in saline) 100 % of control; (dose: 100.0 mg/kg/injection, schedule: Q01DX009 (ip), vehicle: suspension in saline) 100 % of control; (dose: 200.0 mg/kg/injection, schedule: Q01DX009 (ip), vehicle: suspension in saline) 100 % of control.

For `CC(=O)Oc1ccc(=O)[nH]c1`, the T/C under setting [1] is 100 % of control and 105 % of control.

On to `CCc1nc(N)nc(N)c1-c1ccc(Cl)cc1.[O]=[Zn]`, for which the T/C runs as follows: (dose: 12.5 mg/kg/injection, schedule: Q04DX003 (ip), vehicle: Klucel (hydroxypropylcellulose) (HPC)) 106 % of control; (dose: 25.0 mg/kg/injection, schedule: Q04DX003 (ip), vehicle: Klucel (hydroxypropylcellulose) (HPC)) 106 % of control; (dose: 50.0 mg/kg/injection, schedule: Q04DX003 (ip), vehicle: Klucel (hydroxypropylcellulose) (HPC)) 113 % of control; (dose: 100.0 mg/kg/injection, schedule: Q04DX003 (ip), vehicle: Klucel (hydroxypropylcellulose) (HPC)) 117 % of control.

`Cc1nc(N)[nH]c(=O)c1CCCCC#N`: the T/C runs as follows: under setting [2], 104 % of control; under setting [3], 104 % of control.

Turning to `c1cc2cc(-c3cc4ccc(C5=NCCN5)cc4[nH]3)[nH]c2cc1C1=NCCN1`, the T/C reads like this: (dose: 100.0 mg/kg/injection, schedule: Q04DX003 (ip), vehicle: saline) 210 % of control; (dose: 200.0 mg/kg/injection, schedule: Q04DX003 (ip), vehicle: saline) 189 % of control; (dose: 400.0 mg/kg/injection, schedule: Q04DX003 (ip), vehicle: saline) 159 % of control.

Take `O=C1CN(CO)C(=O)N1CO`: the T/C is 114 % of control (dose: 25.0 mg/kg/injection, schedule: Q01DX005 (ip), vehicle: Klucel (hydroxypropylcellulose) (HPC)); 116 % of control and 117 % of control under setting [4]; 116 % of control under setting [5].

For the molecule `Nc1ccc(-c2nc(N)c3[nH]cnc3n2)cc1`, the T/C (dose: 12.5 mg/kg/injection, schedule: Q01DX005 (ip), vehicle: suspension in saline) was 97 % of control; the T/C (dose: 25.0 mg/kg/injection, schedule: Q01DX005 (ip), vehicle: suspension in saline) is 102 % of control; the T/C (dose: 50.0 mg/kg/injection, schedule: Q01DX005 (ip), vehicle: suspension in saline) was 100 % of control; the T/C (dose: 100.0 mg/kg/injection, schedule: Q01DX005 (ip), vehicle: suspension in saline) was 99 % of control.

As for `COC1C=CC23c4cc5c(cc4C(O)OC2CN(C)C3C1)OCO5` (configuration not stated), the T/C under setting [1] is 106 % of control, the T/C under setting [6] is 107 % of control, the T/C under setting [7] was 115 % of control and the T/C under setting [8] was 94 % of control.

For the molecule `NCc1ccccc1Br`, the T/C was 101 % of control (dose: 50.0 mg/kg/injection, schedule: Q01DX005 (ip), vehicle: distilled water + alcohol); 100 % of control (dose: 100.0 mg/kg/injection, schedule: Q01DX005 (ip), vehicle: distilled water + alcohol); 103 % of control (dose: 200.0 mg/kg/injection, schedule: Q01DX005 (ip), vehicle: distilled water + alcohol).

`O=C1c2ccccc2C(=O)N1CCCC[P+](c1ccccc1)(c1ccccc1)c1ccccc1`: the T/C by setting is: (dose: 1.5 mg/kg/injection, schedule: Q01DX009 (ip), vehicle: other) 112 % of control; (dose: 3.0 mg/kg/injection, schedule: Q01DX009 (ip), vehicle: other) 116 % of control; (dose: 6.0 mg/kg/injection, schedule: Q01DX009 (ip), vehicle: other) 116 % of control; (dose: 9.0 mg/kg/injection, schedule: Q01DX009 (ip), vehicle: other) 121 % of control.

As to `CC(=O)Nc1cc(N2CCCCC2)c(N)c2c1C(=O)c1ccccc1C2=O`, the T/C is 102 % of control under setting [4], 97 % of control under setting [5] and 98 % of control under setting [9].

For `COC1=CC(=O)C2=C(OCO2)C1=O`, the T/C is 104 % of control under setting [10]; 109 % of control under setting [11]; 103 % of control (dose: 25.0 mg/kg/injection, schedule: Q04DX002 (ip), vehicle: saline with Tween-80).

Consider `S=c1[nH]nc(NC2CCCCC2)s1`, for which the T/C (dose: 50.0 mg/kg/injection, schedule: Q01DX009 (ip), vehicle: saline with Tween-80) is 90 % of control; the T/C (dose: 100.0 mg/kg/injection, schedule: Q01DX009 (ip), vehicle: saline with Tween-80) was 90 % of control; the T/C (dose: 100.0 mg/kg/injection, schedule: Q04DX003 (ip), vehicle: saline with Tween-80) is 91 % of control; the T/C (dose: 200.0 mg/kg/injection, schedule: Q01DX009 (ip), vehicle: saline with Tween-80) was 90 % of control; the T/C (dose: 200.0 mg/kg/injection, schedule: Q04DX003 (ip), vehicle: saline with Tween-80) is 91 % of control.

For `Cc1cc(C)nc(NS(=O)(=O)c2ccc(NC(=O)c3ccncc3)cc2)n1`, the T/C reads like this: under setting [4], 95 % of control; under setting [5], 96 % of control; under setting [9], 91 % of control.

As to `O=[N+]([O-])c1cccc(C2OCC3(CO2)COC(c2cccc([N+](=O)[O-])c2)OC3)c1` (configuration not stated), the T/C was 100 % of control under setting [7]; 100 % of control under setting [8]; 101 % of control (dose: 200.0 mg/kg/injection, schedule: Q01DX009 (ip), vehicle: saline).

For the molecule `Clc1ccc2c(c1)[N+](=c1ccc3nc4cc(Cl)ccc4sc-3c1)c1ccccc1S2.[Cl][Cu][Cl]`, the T/C under setting [2] is 95 % of control; the T/C under setting [3] is 91 % of control; the T/C (dose: 240.0 mg/kg/injection, schedule: Q01DX005 (ip), vehicle: Klucel (hydroxypropylcellulose) (HPC)) is 88 % of control.

As to `CN=C(N)N/N=C(\C)c1ccc2c(c1)Cc1cc(/C(C)=N/NC(N)=NC)ccc1-2`, the T/C is 124 % of control (dose: 0.78 mg/kg/injection, schedule: Q04DX002 (ip), vehicle: saline with Tween-80); 154 % of control under setting [10]; 123 % of control under setting [11].

In the case of `O=CN(CCC(=O)O)c1ccccc1`, the T/C is 106 % of control (dose: 50.0 mg/kg/injection, schedule: Q01DX005 (ip), vehicle: saline); 113 % of control (dose: 100.0 mg/kg/injection, schedule: Q01DX005 (ip), vehicle: saline); 107 % of control (dose: 200.0 mg/kg/injection, schedule: Q01DX005 (ip), vehicle: saline).

As to `Brc1cc(Br)c(I)c(Br)c1`, the T/C reads like this: (dose: 100.0 mg/kg/injection, schedule: Q04DX003 (ip), vehicle: other) 95 % of control; (dose: 200.0 mg/kg/injection, schedule: Q04DX003 (ip), vehicle: other) 100 % of control; (dose: 400.0 mg/kg/injection, schedule: Q04DX003 (ip), vehicle: other) 100 % of control.

For `CNC(=O)OCc1c(COC(=O)NC)c(C(F)(F)F)n2c1CCC2`, the T/C by setting is: (dose: 50.0 mg/kg/injection, schedule: Q01DX009 (ip), vehicle: Klucel (hydroxypropylcellulose) (HPC)) 117 % of control; (dose: 100.0 mg/kg/injection, schedule: Q01DX009 (ip), vehicle: Klucel (hydroxypropylcellulose) (HPC)) 116 % of control.

In the case of `COC(=O)c1ccc(=O)c2nc3/c(=C/O)c(O)cc(=O)c3[nH]c12`, the T/C (dose: 0.15 mg/kg/injection, schedule: Q04DX003 (ip), vehicle: saline) was 95 % of control; the T/C (dose: 0.3 mg/kg/injection, schedule: Q01DX009 (ip), vehicle: saline with Tween-80) is 90 % of control; the T/C (dose: 0.3 mg/kg/injection, schedule: Q04DX003 (ip), vehicle: saline) is 100 % of control; the T/C (dose: 0.6 mg/kg/injection, schedule: Q04DX003 (ip), vehicle: saline) is 109 % of control.

`CCC(=O)NC(CC(C)C)C(=O)NC(CC(C)C)C(=O)NC(C=O)CCCN=C(N)N` (configuration not stated) (tested in a mixture with another compound): the T/C is 103 % of control (dose: 6.25 mg/kg/injection, schedule: Q01DX009 (ip), vehicle: saline); 102 % of control and 104 % of control under setting [1]; 104 % of control and 96 % of control under setting [6]; 102 % of control and 108 % of control under setting [7]; 110 % of control under setting [8].
